Measurements published in patent US11680939B2, “Systems and methods for detecting bioactive compounds using sensors with pre-stimulated cells” (priority 2019, dated 2023).

System: sensor cells
Assay: Impedance response of a sensor with photosensitive living cells to light pulses on exposure to a cytotoxin (FIG. 9)
Format: cell-based
Conditions: toxin sample vs. clean sample, optically stimulated sensor cells
Excerpt: FIG. 2 illustrates an exemplary behavior of sensor cells when exposed to light according to some embodiments of the present invention. Some embodiments employ sensor cells which are genetically modified to express an opsin (e.g., channel rhodopsin, without loss of generality), and/or other channel proteins with a role in maintaining cellular homeostasis (e.g., potassium channel ROMK1, without loss of generality). In the illustrated example, exposure to light induces a sudden intake of sodium ions through the cell membrane, which may substantially change the membrane potential and therefore the measured impedance of the respective cell. […]
FIGS. 4-A-B show exemplary impedance responses of a sensor to a single light pulse and to a pulse train, respectively, according to some embodiments of the present invention wherein the sensor is prepared to contain cells having optically-sensitive ion channels. As the cellular membrane potential changes in response to the light pulse(s), the change is registered in the measured impedance of the sensor. […] This observation enables some embodiments of the present invention to detect and/or quantitate the target analyte from time series of impedance measurements. […]
A step 120 acquires a target impedance time series comprising a plurality of values, at least two of which are determined at distinct moments in time. […]

## C[C@@H]1O[C@@H](O[C@H]2C[C@@H](O)[C@]3(CO)[C@H]4[C@H](O)C[C@]5(C)[C@@H](C6=CC(=O)OC6)CC[C@]5(O)[C@@H]4CC[C@]3(O)C2)[C@H](O)[C@H](O)[C@H]1O [ouabain]
  response of the sensor to exposure to a cytotoxin (impedance response, membrane repolarization after light pulses): visible modifications of cell homeostasis
